Source: US11007128B2, “Composition for preventing or treating dental erosion” (MEDA OTC AB, priority 2014, dated 2021)

Key:
[1] = 0.15% HF at pH 2.58, 5 minutes at 37° C.; then 2% citric acid 15 minutes at 37° C.
Excerpt: A low vacuum scanning electron microscope, JEOL JSM 6610 LV, was used for studying surfaces.
SEM pictures were taken with 5000 times magnification (SEM×5000).
A human ex vivo tooth (premolar) was received from a dentist practice. The tooth was stored in Ringer solution and kept in refrigerator.
The effect of the HF treatment on HA surfaces was verified using an ex vivo human premolar tooth. The tooth had been split into two halves before the experiment (tooth 1:1 and tooth 1:2). The two tooth halves were rinsed with distilled water. One tooth half was placed in a 50 ml plastic bottle containing 2% citric acid and then allowed to incubate at 37° C. for 15 minutes under gentle agitation. The tooth was then rinsed with distilled water for a few minutes and then put on tissue paper to dry. […] The tooth half was rinsed with distilled water and then immersed in 2% citric acid and then allowed to incubate at 37° C. for 15 minutes under gentle agitation. The tooth was then rinsed with distilled water and left to dry on tissue paper for a few minutes.

[2] = 0.2% HF solution, pH 2.0, ~0.1 mol/l F; sound enamel; cited from earlier work

Question: For `F` [HF, hydrogen fluoride], which “SEM: protection of enamel from etching” value [1] is on record?
Answer: The value was “clearly protected from etching”.

Question: And the “duration of protective effect against citric acid attack” value [2]?
Answer: Its value is “at least 1 week”.
